This passage reports IC50 results from BindingDB's records for doi:10.1016/j.bmcl.2006.12.033 (F. Hoffmann-La Roche, 2007).

Some results are limits rather than exact numbers.

The target of assay [1] is T1, Metabotropic glutamate receptor 5 (Homo sapiens, UniProt P41594). As to the kind of experiment: Antagonist activity at mGluR5 by FLIPR.
For assay [2], the target named is T1, Metabotropic glutamate receptor 5. As to the kind of experiment: Displacement of [3H]MPEP from mGlu5 receptor.

One may read the IC50 as the concentration at which inhibition is half-maximal. Read a low IC50 as higher potency.

T1 sequence (P41594 whole entry): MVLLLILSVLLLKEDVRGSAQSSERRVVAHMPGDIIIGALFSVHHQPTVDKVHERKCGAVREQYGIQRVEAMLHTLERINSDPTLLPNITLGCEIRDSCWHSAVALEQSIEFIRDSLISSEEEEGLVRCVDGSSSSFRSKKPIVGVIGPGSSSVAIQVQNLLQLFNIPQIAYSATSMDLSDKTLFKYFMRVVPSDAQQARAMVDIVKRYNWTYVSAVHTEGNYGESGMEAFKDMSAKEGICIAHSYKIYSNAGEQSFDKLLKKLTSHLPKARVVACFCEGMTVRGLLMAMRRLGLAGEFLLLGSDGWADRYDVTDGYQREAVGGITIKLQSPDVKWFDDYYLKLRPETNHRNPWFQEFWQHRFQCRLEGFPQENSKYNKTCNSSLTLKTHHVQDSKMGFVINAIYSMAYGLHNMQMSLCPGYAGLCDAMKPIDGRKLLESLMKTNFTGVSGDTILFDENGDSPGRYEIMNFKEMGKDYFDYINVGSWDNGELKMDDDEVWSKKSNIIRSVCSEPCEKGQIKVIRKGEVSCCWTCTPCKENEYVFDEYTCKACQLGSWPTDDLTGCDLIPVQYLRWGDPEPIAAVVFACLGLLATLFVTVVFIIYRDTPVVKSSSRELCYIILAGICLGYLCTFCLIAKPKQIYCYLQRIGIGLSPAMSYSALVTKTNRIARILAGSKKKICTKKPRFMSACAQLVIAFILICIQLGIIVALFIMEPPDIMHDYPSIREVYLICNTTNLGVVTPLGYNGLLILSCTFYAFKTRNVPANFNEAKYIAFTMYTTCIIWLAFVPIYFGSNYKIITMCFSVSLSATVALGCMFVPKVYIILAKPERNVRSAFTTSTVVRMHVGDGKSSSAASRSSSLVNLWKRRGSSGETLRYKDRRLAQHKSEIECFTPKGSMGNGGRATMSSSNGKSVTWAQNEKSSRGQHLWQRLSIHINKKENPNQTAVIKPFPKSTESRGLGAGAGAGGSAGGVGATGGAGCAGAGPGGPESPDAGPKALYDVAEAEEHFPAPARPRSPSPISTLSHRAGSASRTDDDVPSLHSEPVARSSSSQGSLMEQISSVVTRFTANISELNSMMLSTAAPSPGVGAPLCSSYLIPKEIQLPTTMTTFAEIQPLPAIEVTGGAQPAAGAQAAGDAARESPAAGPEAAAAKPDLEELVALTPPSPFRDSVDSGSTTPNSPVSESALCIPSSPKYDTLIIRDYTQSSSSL

With `Cn1cc(O)nc1NC(=O)Nc1cccnc1` [(E)-1-(1-methyl-4-oxoimidazolidin-2-ylidene)-3-(pyridin-3-yl)urea], the IC50 in assay [1] and in assay [2] was over 5 µM in each case.
Take `Cn1cc(O)nc1NC(=O)Nc1ccc(Cl)cc1` [(E)-1-(4-chlorophenyl)-3-(1-methyl-4-oxoimidazolidin-2-ylidene)urea]: the IC50 in assay [1] and in assay [2] was over 5 µM each time.
